{
  "source": "patent US20230338370A1",
  "about": "“Treatment of Cancer with TOR Kinase Inhibitors” (Signal Pharmaceuticals, LLC, priority 2012, published 2023)",
  "format_in_all_cases": "cell-based",
  "key": {"MDA-MB-157 [1]": {"test_system": "MDA-MB-157", "experiment": "Growth inhibition assay for Breast Cancer (BC) Cell lines", "conditions": "Homo sapiens; MDA-MB-157, TN; 96 hours, Cell Titer-Glo", "description": "(§1) Growth inhibition assay for Breast Cancer (BC) Cell lines. Compounds 1 (a TOR kinase inhibitor set forth herein having molecular formula C16H16N8O) and 2 (a TOR kinase inhibitor set forth herein having molecular formula C17H18N8O2) were dissolved in dimethyl sulfoxide (DMSO) to prepare a 10 mM stock solution. A serial titration was performed to produce a working concentration range of 1.5 µM to 10 mM. Aliquots to produce final concentrations of 1.5 nM to 10 µM were spotted via an acoustic dispenser (EDC ATS-100) into an empty 384-well plate. Compounds 1 and 2 were spotted in a 10-point serial dilution fashion (3-fold dilution) in duplicate within the plate. The DMSO concentration was kept constant for a final assay concentration of 0.1% DMSO. Plates were replicated for use with different cell lines and testing periods. After compound plate replication, all plates were sealed (Agilent ThermoLoc) and stored at -20° C. for up to 1 month. […] When ready for testing, plates were removed from the freezer, thawed, and unsealed just prior to the addition of the test cells. Prior to testing, cells were grown and expanded in culture flasks to provide sufficient amounts of starting material. Cells were then diluted to the appropriate densities and added directly to the compound-spotted 384-well plates. Cells were allowed to grow for 96 hours at 37° C./5% CO2. At the time when compound was added (t0), initial cell number was assessed via a viability assay (Cell Titer-Glo) by quantifying the level of luminescence generated by ATP present in viable cells. After 96 hours, cell viability of compound-treated cells was assessed via Cell Titer-Glo and luminescence measurement. Cell lines were assayed for growth inhibition by Compounds 1 and 2 in at least 3 independent tests. A control cell line (the lung tumor cell line, A549) was included in each of the assays. The compound response against this control cell line was monitored closely to enable comparison of the data generated through the assay period. All data were normalized and presented as a percentage of the DMSO-treated cells. Results were then expressed as a GI50 value. The GI50 value corrects for the cell count at time zero."}, "BT-549 [2]": {"test_system": "BT-549", "experiment": "Growth inhibition assay for Breast Cancer (BC) Cell lines", "conditions": "Homo sapiens; BT-549, TN; 96 hours, Cell Titer-Glo", "description": "as §1"}, "HS578T [3]": {"test_system": "HS578T", "experiment": "Growth inhibition assay for Breast Cancer (BC) Cell lines", "conditions": "Homo sapiens, Hs-578T, TN, 96 hours, Cell Titer-Glo", "description": "as §1"}, "HCC70 [4]": {"test_system": "HCC70", "experiment": "Growth inhibition assay for Breast Cancer (BC) Cell lines", "conditions": "Homo sapiens; HCC70, TN; 96 hours, Cell Titer-Glo", "description": "as §1"}, "MDA-MB-157 [5]": {"test_system": "MDA-MB-157", "experiment": "Apoptosis assay for BC Cell lines (Caspase 3/7-Glo)", "conditions": "MDA-MB-157, TN; 24 hours", "description": "(§2) Apoptosis assay for BC Cell lines. Prior to testing, cells were grown and expanded in culture flasks to provide sufficient amounts of starting material. Cells were then diluted to their desired densities and added directly to compound-spotted 384-well plates. Cells were allowed to grow for 24 hours in 5% CO2 at 37° C. The apoptotic response was assessed by quantifying the activities of caspase 3 and caspase 7 (Caspase 3/7-Glo) in treated cells and control cells at the 24-hour time point. All data was normalized and represented as a value relative to the DMSO-treated cells. Results were then expressed as CalX, which is the minimum compound concentration required to double the levels of caspase 3/7 relative to those of the DMSO-treated cells during their treatment period."}, "BT-549 [6]": {"test_system": "BT-549", "experiment": "Apoptosis assay for BC Cell lines (Caspase 3/7-Glo)", "conditions": "BT-549, TN; 24 hours", "description": "as §2"}, "MDA-MB-436": {"test_system": "MDA-MB-436", "experiment": "Apoptosis assay for BC Cell lines (Caspase 3/7-Glo)", "conditions": "MDA-MB-436, TN; 24 hours", "description": "as §2"}, "HCC2157": {"test_system": "HCC2157", "experiment": "Apoptosis assay for BC Cell lines (Caspase 3/7-Glo)", "conditions": "HCC2157, TN; 24 hours", "description": "as §2"}, "HDQ-P1": {"test_system": "HDQ-P1", "experiment": "Apoptosis assay for BC Cell lines (Caspase 3/7-Glo)", "conditions": "HDQ-P1, TN; 24 hours", "description": "as §2"}, "CAL-148": {"test_system": "CAL-148", "experiment": "Apoptosis assay for BC Cell lines (Caspase 3/7-Glo)", "conditions": "CAL-148, TN; 24 hours", "description": "as §2"}, "HCC1937": {"test_system": "HCC1937", "experiment": "Apoptosis assay for BC Cell lines (Caspase 3/7-Glo)", "conditions": "HCC1937, TN; 24 hours", "description": "as §2"}, "MDA-MB-231": {"test_system": "MDA-MB-231", "experiment": "Apoptosis assay for BC Cell lines (Caspase 3/7-Glo)", "conditions": "MDA-MB-231, TN; 24 hours", "description": "as §2"}, "HS578T [7]": {"test_system": "HS578T", "experiment": "Apoptosis assay for BC Cell lines (Caspase 3/7-Glo)", "conditions": "TN, 24 hours", "description": "as §2"}, "CAL-85-1": {"test_system": "CAL-85-1", "experiment": "Apoptosis assay for BC Cell lines (Caspase 3/7-Glo)", "conditions": "CAL-85-1, TN; 24 hours", "description": "as §2"}, "HCC1143": {"test_system": "HCC1143", "experiment": "Apoptosis assay for BC Cell lines (Caspase 3/7-Glo)", "conditions": "HCC1143, TN; 24 hours", "description": "as §2"}, "HCC38": {"test_system": "HCC38", "experiment": "Apoptosis assay for BC Cell lines (Caspase 3/7-Glo)", "conditions": "HCC38, TN; 24 hours", "description": "as §2"}, "CAL-51": {"test_system": "CAL-51", "experiment": "Apoptosis assay for BC Cell lines (Caspase 3/7-Glo)", "conditions": "CAL-51, TN; 24 hours", "description": "as §2"}, "MB157": {"test_system": "MB157", "experiment": "Apoptosis assay for BC Cell lines (Caspase 3/7-Glo)", "conditions": "MB157, TN; 24 hours", "description": "as §2"}, "MT-3": {"test_system": "MT-3", "experiment": "Apoptosis assay for BC Cell lines (Caspase 3/7-Glo)", "conditions": "MT-3, TN; 24 hours", "description": "as §2"}, "BT-20": {"test_system": "BT-20", "experiment": "Apoptosis assay for BC Cell lines (Caspase 3/7-Glo)", "conditions": "BT-20, TN; 24 hours", "description": "as §2"}, "HCC1806": {"test_system": "HCC1806", "experiment": "Apoptosis assay for BC Cell lines (Caspase 3/7-Glo)", "conditions": "HCC1806, TN; 24 hours", "description": "as §2"}, "DU4475": {"test_system": "DU4475", "experiment": "Apoptosis assay for BC Cell lines (Caspase 3/7-Glo)", "conditions": "DU4475, TN; 24 hours", "description": "as §2"}, "MDA-MB-468": {"test_system": "MDA-MB-468", "experiment": "Apoptosis assay for BC Cell lines (Caspase 3/7-Glo)", "conditions": "MDA-MB-468, TN; 24 hours", "description": "as §2"}, "HCC70 [8]": {"test_system": "HCC70", "experiment": "Apoptosis assay for BC Cell lines (Caspase 3/7-Glo)", "conditions": "HCC70, TN; 24 hours", "description": "as §2"}, "CAL-120": {"test_system": "CAL-120", "experiment": "Apoptosis assay for BC Cell lines (Caspase 3/7-Glo)", "conditions": "CAL-120, TN; 24 hours", "description": "as §2"}, "HCC1187": {"test_system": "HCC1187", "experiment": "Apoptosis assay for BC Cell lines (Caspase 3/7-Glo)", "conditions": "HCC1187, TN; 24 hours", "description": "as §2"}},
  "data": [
    {"smiles": "CCN1C(=O)CNc2ncc(-c3ccc(-c4nc[nH]n4)nc3C)nc21", "note": "[Compound 1, 1-ethyl-7-(2-methyl-6-(1H-1,2,4-triazol-3-yl)pyridin-3-yl)-3,4-dihydropyrazino[2,3-b]pyrazin-2(1H)-one]", "values": [
      {"measurement": "GI50", "setting": "MDA-MB-157 [1]", "value": 0.472, "unit": "µM"},
      {"measurement": "GI50", "setting": "BT-549 [2]", "value": 0.146, "unit": "µM"},
      {"measurement": "GI50", "setting": "HS578T [3]", "value": 0.286, "unit": "µM"},
      {"measurement": "GI50", "setting": "HCC70 [4]", "value": 0.0942, "unit": "µM"},
      {"measurement": "CalX (minimum compound concentration required to double the levels of caspase 3/7)", "setting": "MDA-MB-157 [5]", "value": "≥10", "unit": "µM"},
      {"measurement": "CalX (minimum compound concentration required to double the levels of caspase 3/7)", "setting": "BT-549 [6]", "value": "≥10", "unit": "µM"},
      {"measurement": "CalX (minimum compound concentration required to double the levels of caspase 3/7)", "setting": "MDA-MB-436", "value": "≥10", "unit": "µM"},
      {"measurement": "CalX (minimum compound concentration required to double the levels of caspase 3/7)", "setting": "HCC2157", "value": 1.3472, "unit": "µM"},
      {"measurement": "CalX (minimum compound concentration required to double the levels of caspase 3/7)", "setting": "HDQ-P1", "value": "≥10", "unit": "µM"},
      {"measurement": "CalX (minimum compound concentration required to double the levels of caspase 3/7)", "setting": "CAL-148", "value": 0.1583, "unit": "µM"},
      {"measurement": "CalX (minimum compound concentration required to double the levels of caspase 3/7)", "setting": "HCC1937", "value": "≥10", "unit": "µM"},
      {"measurement": "CalX (minimum compound concentration required to double the levels of caspase 3/7)", "setting": "MDA-MB-231", "value": "≥10", "unit": "µM"},
      {"measurement": "CalX (minimum compound concentration required to double the levels of caspase 3/7)", "setting": "HS578T [7]", "value": "≥10", "unit": "µM"},
      {"measurement": "CalX (minimum compound concentration required to double the levels of caspase 3/7)", "setting": "CAL-85-1", "value": "≥10", "unit": "µM"},
      {"measurement": "CalX (minimum compound concentration required to double the levels of caspase 3/7)", "setting": "HCC1143", "value": "≥10", "unit": "µM"},
      {"measurement": "CalX (minimum compound concentration required to double the levels of caspase 3/7)", "setting": "HCC38", "value": "≥10", "unit": "µM"},
      {"measurement": "CalX (minimum compound concentration required to double the levels of caspase 3/7)", "setting": "CAL-51", "value": 0.3611, "unit": "µM"},
      {"measurement": "CalX (minimum compound concentration required to double the levels of caspase 3/7)", "setting": "MB157", "value": "≥10", "unit": "µM"},
      {"measurement": "CalX (minimum compound concentration required to double the levels of caspase 3/7)", "setting": "MT-3", "value": 2.4106, "unit": "µM"},
      {"measurement": "CalX (minimum compound concentration required to double the levels of caspase 3/7)", "setting": "BT-20", "value": 0.6025, "unit": "µM"},
      {"measurement": "CalX (minimum compound concentration required to double the levels of caspase 3/7)", "setting": "HCC1806", "value": "≥10", "unit": "µM"},
      {"measurement": "CalX (minimum compound concentration required to double the levels of caspase 3/7)", "setting": "DU4475", "value": 0.9448, "unit": "µM"},
      {"measurement": "CalX (minimum compound concentration required to double the levels of caspase 3/7)", "setting": "MDA-MB-468", "value": "≥10", "unit": "µM"},
      {"measurement": "CalX (minimum compound concentration required to double the levels of caspase 3/7)", "setting": "HCC70 [8]", "value": "≥10", "unit": "µM"},
      {"measurement": "CalX (minimum compound concentration required to double the levels of caspase 3/7)", "setting": "CAL-120", "value": "≥10", "unit": "µM"},
      {"measurement": "CalX (minimum compound concentration required to double the levels of caspase 3/7)", "setting": "HCC1187", "value": 0.6418, "unit": "µM"}
    ]}
  ]
}
